Test results: ChEMBL document CHEMBL1128012, “Non-peptide-based inhibitors of human immunodeficiency virus-1 protease” (Bioorg Med Chem Lett, 1994); call rule not given here

target: T1, Human immunodeficiency virus type 1 protease (Human immunodeficiency virus 1, UniProt Q72874); assay: Inhibitory activity was evaluated against HIV-1 protease

Row | SMILES | IC50
1 | O=C1N(Cc2ccccc2)C(Cc2ccccc2)P(=O)(O)C(Cc2ccccc2)N1Cc1ccccc1 (stereo not drawn) | 21 µM
2 | O=C1NC(Cc2ccccc2)P(=O)(O)C(Cc2ccccc2)N1 (racemic) | > 100 µM
3 | O=C1N(Cc2ccc(CBr)cc2)C(Cc2ccccc2)P(=O)(O)C(Cc2ccccc2)N1Cc1ccc(CBr)cc1 (racemic) | 0.7 µM
4 | O=C1N(Cc2ccc3ccccc3c2)C(Cc2ccccc2)P(=O)(O)C(Cc2ccccc2)N1Cc1ccc2ccccc2c1 (racemic) | 0.26 µM
5 | O=C1N(Cc2ccc(CBr)cc2)C(Cc2ccccc2)P(=O)(O)C(Cc2ccccc2)N1Cc1ccc(CBr)cc1 (stereo not drawn) | 18 µM
6 | O=C1N(Cc2ccc(CO)cc2)C(Cc2ccccc2)P(=O)(O)C(Cc2ccccc2)N1Cc1ccc(CO)cc1 (stereo not drawn) | 4.8 µM
7 | O=C1N(Cc2ccc(CO)cc2)C(Cc2ccccc2)P(=O)(O)C(Cc2ccccc2)N1Cc1ccc(CO)cc1 (racemic) | 0.24 µM
8 | O=C1NC(Cc2ccccc2)P(=O)(O)C(Cc2ccccc2)N1 (stereo not drawn) | > 100 µM

target: T1, Human immunodeficiency virus type 1 protease; assay: Inhibitory activity was evaluated against HIV-1 protease; Not Active

Row | SMILES | IC50
9 | COP1(=O)C(Cc2ccccc2)NC(=O)NC1Cc1ccccc1 (stereo not drawn) | Not Active
10 | COP1(=O)C(Cc2ccccc2)N(Cc2ccc(CBr)cc2)C(=O)N(Cc2ccc(CBr)cc2)C1Cc1ccccc1 (stereo not drawn) | Not Active
11 | COP1(=O)C(Cc2ccccc2)N(Cc2ccc3ccccc3c2)C(=O)N(Cc2ccc3ccccc3c2)C1Cc1ccccc1 (stereo not drawn) | Not Active
12 | COP1(=O)C(Cc2ccccc2)N(Cc2ccc(CO)cc2)C(=O)N(Cc2ccc(CO)cc2)C1Cc1ccccc1 (stereo not drawn) | Not Active
13 | COP1(=O)C(Cc2ccccc2)N(Cc2ccccc2)C(=O)N(Cc2ccccc2)C1Cc1ccccc1 (stereo not drawn) | Not Active
